Test system: rat heart tissue
Experiment: GENECALLING differential gene expression analysis after dosing of serotonin modulating agents
Assay type: in vivo, Sprague Dawley rats
Summary of the method: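 Rats dosed with serotonin modulating agents, controls given sterile water or canola oil; tissue taken 24 h after the last dose. Total RNA converted to cDNA and profiled by GENECALLING differential expression analysis; fragments changed more than ±1.5-fold were selected.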

CNS(=O)(=O)Cc1ccc2[nH]cc(CCN(C)C)c2c1 [sumatriptan]
Effects on Transcription Level: Novel gene fragment, 524 bp, 86% SI to mouse F-box protein FBX6b [AF176526] (CARDIOTOX 1): +1.5 fold | Effects on Transcription Level: Novel gene fragment, 306 bp, 91% SI to mouse low density lipoprotein receptor related protein 4 [AB013874] (CARDIOTOX 2): −1.6 fold | Effects on Transcription Level: Novel gene fragment, 540 bp, 97% SI to mouse skeletal muscle alpha-actin [X03766] (CARDIOTOX 3): +2.4 fold | Effects on Transcription Level: Novel gene fragment, 80 bp (CARDIOTOX 4): −1.4 fold | Effects on Transcription Level: Novel gene fragment, 957 bp, 99% SI to kidney injury associated moleculer HW036 [V80591] (CARDIOTOX 5): −1.6 fold | Effects on Transcription Level: Novel gene fragment, 282 bp, 85% SI to human KIAA1515 protein [AB040948] (CARDIOTOX 6): −1.7 fold | Effects on Transcription Level: Novel gene fragment, 405 bp, 88% SI to human 2-oxoglutarate dehydrogenase [D10523] (CARDIOTOX 7): +1.5 fold | Effects on Transcription Level: UCP2 (CARDIOTOX 8, GenBank AB010743): −1.6 fold | Effects on Transcription Level: Plasma membrane Ca2 + ATPase-isoform 1 (CARDIOTOX 9, GenBank J03753): −1.6 fold | Effects on Transcription Level: Novel gene fragment, 242 bp, 97% SI to mouse HSP86 heat-shock protein [X16857] (CARDIOTOX 10): +1.4 fold | Effects on Transcription Level: Novel gene fragment, 280 bp, 65% SI to human TRF1-interacting, ankyrin-related ADP-ribose polymerase [AF082556] (CARDIOTOX 11): +1.4 fold | Effects on Transcription Level: Novel gene fragment, 348 bp, 88% SI to mouse Sec61 protein complex gamma subunit [U11027] (CARDIOTOX 12): +1.3 fold | Effects on Transcription Level: Novel gene fragment 553 bp, 93% SI to mouse Sid329 [AB024984] (CARDIOTOX 13): +1.4 fold | Effects on Transcription Level: Kruppel-like transcription factor (CARDIOTOX 14, GenBank AB020759): +1.3 fold | Effects on Transcription Level: Ribosomal protein L3 (CARDIOTOX 15, GenBank X62166): +1.4 fold | Effects on Transcription Level: Glucose-regulated protein (GRP) 75 (CARDIOTOX 16, GenBank S78556): +1.4 fold | Effects on Transcription Level: Immunoglobulin heavy chain binding protein (BiP) (CARDIOTOX 17, GenBank M14050): +1.4 fold | Effects on Transcription Level: Membrane-spannining proteoglycan NG2 (CARDIOTOX 18, GenBank X56541): −1.5 fold | Effects on Transcription Level: Novel gene fragment, 1294 bp, 96% SI to mouse Sui 1 (elF) homolog [AF129888] (CARDIOTOX 19): +1.6 fold | Effects on Transcription Level: Novel gene fragment, 723 bp, 85% SI to human translation initiation factor elF3 p40 subunit [U54559] (CARDIOTOX 20): +1.6 fold | Effects on Transcription Level: Novel gene fragment, 1324 bp, 76% SI to human flavoprotein subunit of complex II [D30648] (CARDIOTOX 21): +1.5 fold | Effects on Transcription Level: Novel gene fragment, 852 bp, 81% SI to human vacuolar proton-ATPase subunit M9.2 [Y15286] (CARDIOTOX 22): +1.5 fold | Effects on Transcription Level: Novel gene fragment, 178 bp, 91% SI to mouse myosin light chain-2 isoform MLC-2a [S70785] (CARDIOTOX 23): +1.4 fold | Effects on Transcription Level: Novel gene fragment, 167 bp, 90% SI to mouse Rab20 [X80332] (CARDIOTOX 24): +1.9 fold | Effects on Transcription Level: Novel gene fragment, 1070 bp, 80% SI to human muscle-specific protein [AF249873] (CARDIOTOX 25): +1.5 fold | Effects on Transcription Level: Novel gene fragment, 1143 bp, 82% SI to human sarcoma amplified sequence (SAS) [U01160] (CARDIOTOX 26): +1.7 fold | Effects on Transcription Level: Novel gene fragment, 74 bp,75% SI to human secreted protein [X30160] (from patent database)/[X97578] (from patent database)/potential cytokine) (CARDIOTOX 27): +1.5 fold | Effects on Transcription Level: Novel gene fragment, 408 bp, 90% SI to human CGI-07 protein [AF132941] (CARDIOTOX 28): +1.6 fold | Effects on Transcription Level: Novel gene fragment, 618 bp, 95% SI to rat progression related cDNA, ZNPE-120 3′ end partial sequence [patent database X90805] (CARDIOTOX 29): +1.5 fold | Effects on Transcription Level: Novel gene fragment, 717 bp (CARDIOTOX 30): +1.5 fold | Effects on Transcription Level: Novel gene fragment, 546 bp (CARDIOTOX 31): +1.8 fold | Effects on Transcription Level: Novel gene fragment, 920 bp, 91% SI to human HSPC061 [AF161546] (CARDIOTOX 32): +1.5 fold | Effects on Transcription Level: Novel gene fragment, 203 bp, 92% SI to rabbit sarcoplasmic reticulum glycoprotein [J04480] (CARDIOTOX 33): −1.7 fold | Effects on Transcription Level: Novel gene fragment, 178 bp, 68% SI to mouse IgG receptor (beta-Fc-gamma-RII)[M63159] (CARDIOTOX 34): +1.4 fold | Effects on Transcription Level: Ribosomal protein L6 (CARDIOTOX 35, GenBank X87107): +1.6 fold | Effects on Transcription Level: CAP2 protein (adenylyl cyclase-associated protein 2) (CARDIOTOX 36, GenBank U31935): +2.0 fold | Effects on Transcription Level: Alpha-platelet-derived growth factor receptor (CARDIOTOX 37, GenBank M63837): +1.6 fold | Effects on Transcription Level: Rab GD1 alpha protein (CARDIOTOX 38, GenBank X74402): −1.6 fold | Effects on Transcription Level: PKC-zeta-interacting protein (CARDIOTOX 39, GenBank Y08355): +1.6 fold | Effects on Transcription Level: ERK or MAP kinase (CARDIOTOX 40, GenBank X65198): +1.5 fold | Effects on Transcription Level: Peroxisomal multifunctional enzyme type II (CARDIOTOX 41, GenBank U37486): +1.5 fold | Effects on Transcription Level: HBP23 (heme-binding protein 23 kDa) (CARDIOTOX 42, GenBank D30035): +1.7 fold | Effects on Transcription Level: Caveolae-associated protein (CARDIOTOX 43, GenBank U90725): +3.1 fold | Effects on Transcription Level: Prenylated rab acceptor 1 (PRA1) (CARDIOTOX 44, GenBank AF025506): +1.5 fold | Effects on Transcription Level: Novel gene fragment, 337 bp, 88% SI to rabbit cardiac ryanodine receptor (RyR-2)[U50465] (CARDIOTOX 45): −1.5 fold | Effects on Transcription Level: Novel gene fragment, 81 bp, 85% SI to human titin [X90568] (CARDIOTOX 46): −2.2 fold | Effects on Transcription Level: Novel gene fragment, 428 bp, 86% SI to human titin [X90568] (CARDIOTOX 47): −2.0 fold | Effects on Transcription Level: Novel gene fragment, 374 bp, 88% SI to human titin [X90568] (CARDIOTOX 48): −2.3 fold | Effects on Transcription Level: Novel gene fragment, 428 bp, 85% SI to human titin [90568] (CARDIOTOX 49): −2.2 fold | Effects on Transcription Level: Novel gene fragment, 1216 bp, 93% SI to mouse mircotubule-associated protein (MAP) 1B protein [AF115776] (CARDIOTOX 50): 1 fold | Effects on Transcription Level: Novel gene fragment, 1115 bp, 83% SI to human KIAA0549 protein [AB011121] (CARDIOTOX 51): −2.1 fold | Effects on Transcription Level: Novel gene fragment, 153 bp (CARDIOTOX 52): −1.7 fold | Effects on Transcription Level: Novel gene fragment, 89 bp, 93% SI to human putative glialblastoma cell differentiation-related protein (GBDR1) [AF068195] (CARDIOTOX 53): +1.6 fold | Effects on Transcription Level: Rho-associated kinase beta (CARDIOTOX 54, GenBank U61266): −1.10 fold | Effects on Transcription Level: Adenylate kinase 3 (CARDIOTOX 55, GenBank D13062): +1.5 fold | Effects on Transcription Level: Amyloid beta-peptide binding protein (CARDIOTOX 56, GenBank AF049878): +1.5 fold | Effects on Transcription Level: Mitochondrial adenine nuleotide translocator (CARDIOTOX 57, GenBank D12771): +1.5 fold | Effects on Transcription Level: Novel gene fragment, 710 bp, 94% SI to mouse chromatin structural protein homolog Supt5 hp (Supt5 h)[U88539] (CARDIOTOX 58): +3.0 fold | Effects on Transcription Level: Novel gene fragment, 186 bp, 66% SI to human N-acetylglucosaminyltransferase 1 (GlcNAc-TI)[M55621] (CARDIOTOX 60): −1.8 fold | Effects on Transcription Level: Novel gene fragment, 238 bp, 95% SI to mouse MAP kinase-activated protein kinase 2 [X76850] (CARDIOTOX 61): −2.7 fold | Effects on Transcription Level: Novel gene fragment, 173 bp, 70% SI to G protein-coupled receptor kinase GRK4 [X97568] (CARDIOTOX 62): −6.11 fold | Effects on Transcription Level: Novel gene fragment, 133 bp, 77% SI to human apoptosis related protein hSARP3 [patent database: V19114] (CARDIOTOX 63): −3.2 fold | Effects on Transcription Level: Novel gene fragment, 477 bp, 98% SI to peroxisomal phytanoyl-CoA hydroxylase (PHYH) [AF121345] (CARDIOTOX 64): +5.1 fold | Effects on Transcription Level: Novel gene fragment, 413 bp, 95% SI to mouse dihydrolipoamide dehydrogenase (Dld) [U73445] (CARDIOTOX 65): +1.10 fold | Effects on Transcription Level: Novel gene fragment, 726 bp, 76% SI to human succinate dehydrogenase flavoprotein subunit (SDH) [L21936] (CARDIOTOX 66): −4.1 fold | Effects on Transcription Level: Novel gene fragment, 440 bp, 92% SI to mouse cytochrome c oxidase Vllc [X52940] (CARDIOTOX 67): +3.7 fold | Effects on Transcription Level: Novel gene fragment, 276 bp, 80% SI to human titin [X90568] (CARDIOTOX 68): −11.10 fold | Effects on Transcription Level: Novel gene fragment, 149 bp, 70% SI to human titin [X90568] (CARDIOTOX 69): −5.6 fold | Effects on Transcription Level: Novel gene fragment, 467 bp, 94% SI to mouse gelsolin [J04953] (CARDIOTOX 70): −3.2 fold | Effects on Transcription Level: Novel gene fragment, 535 bp, 90% SI to mouse slow/cardiac troponin C [M29793] (CARDIOTOX 71): −2.1 fold

From patent publication US20040005537A1, “Method of identifying toxic agents using differential gene expression” (priority 2000, published 2004)
